Source: PubChem BioAssay (NCI)
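Five concentrations, 48 hours, 96-well plates. At the GI50, growth is halved. TGI: concentration producing complete growth inhibition.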

How the values were obtained:
Assay in all cases: NCI anticancer screen, dose series, 48 h
OVCAR-4 ovarian = tested on: OVCAR-4 ovarian
CAKI-1 renal = tested on: CAKI-1 renal
IGROV1 ovarian = tested on: IGROV1 ovarian
A498 renal = tested on: A498 renal
SW-620 colon = tested on: SW-620 colon
SK-MEL-5 melanoma = tested on: SK-MEL-5 melanoma
HOP-62 NSCLC = tested on: HOP-62 NSCLC
SF-268 CNS = tested on: SF-268 CNS
NCI-H522 lung = tested on: NCI-H522 lung
HCC-2998 colon = tested on: HCC-2998 colon
K-562 leukemia = tested on: K-562 leukemia
HOP-92 NSCLC = tested on: HOP-92 NSCLC
MCF7 breast = tested on: MCF7 breast
T-47D breast = tested on: T-47D breast
OVCAR-8 ovarian = tested on: OVCAR-8 ovarian
ACHN renal = tested on: ACHN renal
TK-10 renal = tested on: TK-10 renal
HCT-116 colon = tested on: HCT-116 colon
UO-31 renal = tested on: UO-31 renal
RXF 393 renal = tested on: RXF 393 renal
U251 CNS = tested on: U251 CNS
SR leukemia = tested on: SR leukemia
OVCAR-5 ovarian = tested on: OVCAR-5 ovarian
MDA-MB-435 = tested on: MDA-MB-435
SN12C renal = tested on: SN12C renal
MDA-MB-231 breast = tested on: MDA-MB-231 breast
KM12 colon = tested on: KM12 colon
HL-60(TB) leukemia = tested on: HL-60(TB) leukemia
SF-539 CNS = tested on: SF-539 CNS
SF-295 CNS = tested on: SF-295 CNS
NCI/ADR-RES ovarian = tested on: NCI/ADR-RES ovarian
BT-549 breast = tested on: BT-549 breast
EKVX NSCLC = tested on: EKVX NSCLC
HS 578T breast = tested on: HS 578T breast
COLO 205 colon = tested on: COLO 205 colon
M14 melanoma = tested on: M14 melanoma
SNB-19 CNS = tested on: SNB-19 CNS
PC-3 prostate = tested on: PC-3 prostate
786-0 renal = tested on: 786-0 renal
SK-MEL-28 melanoma = tested on: SK-MEL-28 melanoma
NCI-H226 lung = tested on: NCI-H226 lung
NCI-H460 lung = tested on: NCI-H460 lung
UACC-257 melanoma = tested on: UACC-257 melanoma
LOX IMVI melanoma = tested on: LOX IMVI melanoma
SNB-75 CNS = tested on: SNB-75 CNS
MOLT-4 leukemia = tested on: MOLT-4 leukemia
HT29 colon = tested on: HT29 colon
A549 NSCLC = tested on: A549 NSCLC
RPMI-8226 leukemia = tested on: RPMI-8226 leukemia
SK-OV-3 ovarian = tested on: SK-OV-3 ovarian
SK-MEL-2 melanoma = tested on: SK-MEL-2 melanoma
UACC-62 melanoma = tested on: UACC-62 melanoma
MALME-3M melanoma = tested on: MALME-3M melanoma
DU-145 prostate = tested on: DU-145 prostate

## COc1cc(NC2=C(Cl)C(=O)c3nc(C)ccc3C2=O)cc(OC)c1
OVCAR-4 ovarian
  GI50: 1400 nM
  TGI: 2820 nM
CAKI-1 renal
  GI50: 1760 nM
  TGI: 3150 nM
IGROV1 ovarian
  GI50: 1730 nM
  TGI: 3550 nM
A498 renal
  GI50: 2350 nM
  TGI: 11400 nM
SW-620 colon
  GI50: 1760 nM
  TGI: 3470 nM
SK-MEL-5 melanoma
  GI50: 1620 nM
  TGI: 2970 nM
HOP-62 NSCLC
  GI50: 4260 nM
  TGI: 14100 nM
SF-268 CNS
  GI50: 3250 nM
  TGI: 14400 nM
NCI-H522 lung
  GI50: 1560 nM
  TGI: 3060 nM
HCC-2998 colon
  GI50: 1810 nM
  TGI: 3260 nM
K-562 leukemia
  GI50: 381 nM
  TGI: > 100000 nM
HOP-92 NSCLC
  GI50: 1730 nM
  TGI: 3170 nM
MCF7 breast
  GI50: 1820 nM
  TGI: 5330 nM
T-47D breast
  GI50: 1500 nM
  TGI: 3620 nM
OVCAR-8 ovarian
  GI50: 1640 nM
  TGI: 3280 nM
ACHN renal
  GI50: 1670 nM
  TGI: 3040 nM
TK-10 renal
  GI50: 2320 nM
  TGI: 3780 nM
HCT-116 colon
  GI50: 1530 nM
  TGI: 2880 nM
UO-31 renal
  GI50: 1690 nM
  TGI: 3060 nM
RXF 393 renal
  GI50: 1630 nM
  TGI: 2990 nM
U251 CNS
  GI50: 1920 nM
  TGI: 4440 nM
SR leukemia
  GI50: 350 nM
  TGI: 2430 nM
OVCAR-5 ovarian
  GI50: 2380 nM
  TGI: 5790 nM
MDA-MB-435
  GI50: 1720 nM
  TGI: 3570 nM
SN12C renal
  GI50: 1710 nM
  TGI: 3250 nM
MDA-MB-231 breast
  GI50: 1460 nM
  TGI: 3080 nM
KM12 colon
  GI50: 13000 nM
  TGI: 26600 nM
HL-60(TB) leukemia
  GI50: 1380 nM
  TGI: 4650 nM
SF-539 CNS
  GI50: 1790 nM
  TGI: 3220 nM
SF-295 CNS
  GI50: 1990 nM
  TGI: 5410 nM
NCI/ADR-RES ovarian
  GI50: 1810 nM
  TGI: 4470 nM
BT-549 breast
  GI50: 1970 nM
  TGI: 3400 nM
EKVX NSCLC
  GI50: 1600 nM
  TGI: 3120 nM
HS 578T breast
  GI50: 2430 nM
  TGI: 5780 nM
COLO 205 colon
  GI50: 1680 nM
  TGI: 3080 nM
M14 melanoma
  GI50: 1690 nM
  TGI: 3090 nM
SNB-19 CNS
  GI50: 5820 nM
  TGI: 18800 nM
PC-3 prostate
  GI50: 2560 nM
  TGI: 10400 nM
786-0 renal
  GI50: 1520 nM
  TGI: 2880 nM
SK-MEL-28 melanoma
  GI50: 1790 nM
  TGI: 3230 nM
NCI-H226 lung
  GI50: 2820 nM
  TGI: 8350 nM
NCI-H460 lung
  GI50: 2680 nM
  TGI: 8070 nM
UACC-257 melanoma
  GI50: 1510 nM
  TGI: 2850 nM
LOX IMVI melanoma
  GI50: 1100 nM
  TGI: 2320 nM
SNB-75 CNS
  GI50: 1940 nM
  TGI: 5370 nM
MOLT-4 leukemia
  GI50: 1500 nM
  TGI: 7000 nM
HT29 colon
  GI50: 1870 nM
  TGI: 3480 nM
A549 NSCLC
  GI50: 2830 nM
  TGI: 8970 nM
RPMI-8226 leukemia
  GI50: 1790 nM
  TGI: 5190 nM
SK-OV-3 ovarian
  GI50: 12600 nM
  TGI: 25100 nM
SK-MEL-2 melanoma
  GI50: 1590 nM
  TGI: 3100 nM
UACC-62 melanoma
  GI50: 1770 nM
  TGI: 3420 nM
MALME-3M melanoma
  GI50: 1760 nM
  TGI: 3280 nM
DU-145 prostate
  GI50: 1840 nM
  TGI: 3550 nM
